Source: patent publication US4080466A, “Pharmaceutical compositions containing 4-hydroxyl-1,3-dithiolan-2-ylidene malonates” (Nihon Nohyaku Co., Ltd., priority 1976, dated 1978)

Columns and labels:
[1] = tested on: fatty liver induced by carbon tetrachloride; assay: Therapeutic Effect on Fatty Liver (carbon tetrachloride); assay type: in vivo, rats (SD strain); settings: 10 days; for Degree of fatty liver (histopathological examination): one symbol per animal
Description: Methods: […] The treated animals were left for 3 days after the last administration to maximize the manifestation of fatty liver. […] It was orally given everyday for 10 days at the dose of 50 or 250 mg/kg. On the 11th day, the animals were sacrificed. The therapeutic effect was evaluated by determining the content of liquid in the liver (triglyceride and total lipid) and examining the histopathological changes. Triglyceride and total lipid were determined colorimetrically by chromotropic acid method and Bragdon's oxidation method, respectively. Indices for the histopathological change is as follows: […]

[2] = tested on: fatty liver induced by ethionine; assay: Effect on Fatty Liver (ethionine); assay type: in vivo, mouse (dd-strain); settings: 250 mg/kg oral, 24 h, 10 animals
From the text: But, the fatty liver is grouped into a couple of patterns from the mechanism of lipid accumulation or metabolism of lipoprotein in the liver. Ethionine is a typical example which induces first pattern of fatty liver. It inhibits RNA and protein synthesis and destructs polysome of the liver cell. Fatty liver is induced by inhibition of the protein synthesis and disturbance of lipoprotein secretion.
Usually, fatty liver is closely related to the accumulation of triglyceride in the liver. In the present example, the degree of fatty liver and protective or therapeutic effect against the fatty liver was evaluated by measurement of triglyceride content in the liver. Methods:
The compounds of this invention and methionine were independently dissolved or suspended into olive oil and administered orally to 4 week-old male mouse (dd-strain) at the dose of 250 mg/kg. One hour before it, simultaneously to it, or one hour after it, ethionine dissolved in equimolar NaOH solution was administered intraperitoneally at the dose of 200 mg/kg. Twenty four hours after the administration of ethionine, the animals were sacrificed and triglyceride content in the liver was determined by chromotropic acid method.

[3] = tested on: excretion of biliary salt; assay: Cholagogic Action: effect on the excretion of biliary salt; assay type: in vivo, rats (SD-JCL strain); settings: 200 mg/kg oral; for Excretion of biliary salt: before treatment = 100
Description: (§1) Drugs as choleresis are used for patients to improve bile flow. In the present example, the effect of the compound of the invention on the quantities of bile and biliary salt is investigated. Methods:
(§2) The male rats (4 week-aged, SD-JCL strain) were anesthetized with sodium pentobarbital (37.5 mg/kg, intraperitoneal injection). The abdominal cavity was opened through a midline incision. The common bile duct was catheterized with polyethylene tube o.d. 0.8 mm. The catheter was brought to the outside through the abdominal incision would prior to closing. Bile was collected from the catheter continuously with time intervals of one hour. The quantity of bile produced in one hour was determined by weighing and that of biliary salt was determined by enzymatic method (Ikagaku Jikkenho Koza 1B, Biological Constituents II, edited by Tamio YAMAKAWA). The amount of biliary salt was represented in the term of cholic acid equivalent.
(§3) In the representation of the results, the quantities of bile and biliary salt produced in one hour prior to the administration of drug were taken as 100. The compound of this invention was orally administered at the dose of 200 mg/kg. As reference, anethol trithion was used.

glucose metabolism [4] = assay: Effect on glucose metabolism; assay type: in vivo, mice; settings: 250 mg/kg oral, 6 h before glucose 4.0 g/kg; 0 min
[5] = tested on: alcohol metabolic function of liver; assay: Effect on Concentration of Ethyl alcohol in the Blood; assay type: in vivo, mice; settings: 250 mg/kg oral, 6 h before ethyl alcohol 1,000 mg/kg
Description: After 6 hours, 1,000 mg/kg of ethyl alcohol was given orally. Blood was taken in a capillary from caudal vein at the time indicated in the results. The plasma was obtained by centrifugation. The concentration of ethyl alcohol in the plasma was measured by FID type gas liquid chromatography. Five mice were used for each group.

glucose metabolism [6] = assay: Effect on glucose metabolism; assay type: in vivo, mice; settings: 250 mg/kg oral, 6 h before glucose 4.0 g/kg
Description: The test compounds dissolved in olive oil and administered orally at the dose of 250 mg/kg to the mice. After 6 hours, 4.0 g/kg of glucose was orally administered. The same amount of glucose was given to the control animals. 0.02 ml of blood was taken from caudal vein of the mice at 30, 60, 90 and 120 min. after glucose administration. Blood sugar was measured by the procedure of Somogyi-Nelson. Number of animals used was 5 to 6 mice for each treatment.

bile flow = assay: Cholagogic Action: effect on bile flow; assay type: in vivo, rats (SD-JCL strain); settings: 200 mg/kg oral; for Bile flow: before treatment = 100
Description: as §1, §2, §3

[7] = tested on: acute liver damage induced by carbon tetrachloride; assay: Protective Effect on Acute Liver Damage associated with Centrilobular Necrosis (carbon tetrachloride); assay type: in vivo, mice (dd-strain); settings: 250 mg/kg oral, average of 5 to 6 mice
From the text: Carbon tetrachloride (CCl4) administration induces centrilobular necrosis of the liver associated with loss of diphosphopyridine nucleotide, hepatic glycogen, coenzyme A and increase in neutral fat. Release of several enzymes from the hepatocytes, and increase of enzyme activities in the plasma are recognized as the result of the damage of the liver. A suitable means for evaluating the degree of damage induced by CCl4 or the degree of protection afforded by drugs is to study the plasma glutamic-pyruvic transminase (p-GPT) activity.
Methods: The test compounds were dissolved or suspended in olive oil and administered orally at the dose of 250 mg/kg to the mice (Four-week-old male mice-dd strain). After 6 hours, CCl4 was administered orally (0.05 ml/kg as olive oil solution). Animals were killed 24 hours after CCl4 administration, and the liver was grossly observed. The plasma was obtained by centrifugation. Activities of p-GPT were determined by the method of Reitman and Frankel and expressed in Karmen units.
Score for liver damage index was as follows:
4 Clearly observable damage
Each figure indicates average of 5 to 6 mice. Values of p-GPT over 1,000 Karmen unit regarded as 1,000 for calculation of average for convenience.

CCOC(=O)C(C(=O)OCC)=C1SCC(O)S1 (stereo not drawn) [Compound 1, Diethyl 4-hydroxy-1,3-dithiolan-2-ylidene malonate]
Total lipid ([1]; 50 mg/kg oral): 80.2 ± 9.8 mg/g-liver
Triglyceride ([1]; 50 mg/kg oral): 36.2 ± 7.8 mg/g-liver
Degree of fatty liver (histopathological examination) ([1]; 50 mg/kg oral): ± + ± ± ± ± +
Total lipid ([1]; 250 mg/kg oral): 70.3 ± 10.2 mg/g-liver
Triglyceride ([1]; 250 mg/kg oral): 24.9 ± 8.2 mg/g-liver
Degree of fatty liver (histopathological examination) ([1]; 250 mg/kg oral): ± ± - - ± ± ±
Triglyceride ([2]; compound 1 hr after ethionine): 11.8 ± 0.72 mg/g-liver
Triglyceride ([2]; compound 1 hr before ethionine (200 mg/kg i.p.)): 12.3 ± 0.82 mg/g-liver
Triglyceride ([2]; simultaneous with ethionine (0 hr)): 7.1 ± 0.24 mg/g-liver
Excretion of biliary salt ([3]; 1 hour after treatment): 103 ± 6.8
Excretion of biliary salt ([3]; 2 hours after treatment): 102 ± 6.6
Excretion of biliary salt ([3]; 3 hours after treatment): 100 ± 5.8
Excretion of biliary salt ([3]; 4 hours after treatment): 95 ± 7.7
Amount of total excreted biliary salts relative to control ([3]; 5 hours after administration): 1.40 times
Excretion of biliary salt ([3]; 5 hours after treatment): 86 ± 5.2
Blood Sugar (glucose metabolism [4]): 138 ± 18.2 mg/dL
Concentration of Ethyl alcohol in Plasma ([5]; 0 min): 12±3 ppm
Concentration of Ethyl alcohol in Plasma ([5]; 5 min): 732±102 ppm
Concentration of Ethyl alcohol in Plasma ([5]; 15 min): 710±88 ppm
Concentration of Ethyl alcohol in Plasma ([5]; 30 min): 455±112 ppm
Concentration of Ethyl alcohol in Plasma ([5]; 60 min): 12±7 ppm
Blood Sugar (glucose metabolism [6]; 30 min): 260 ± 20.4 mg/dL
Blood Sugar (glucose metabolism [6]; 60 min): 228 ± 15.2 mg/dL
Blood Sugar (glucose metabolism [6]; 90 min): 188 ± 11.3 mg/dL
Blood Sugar (glucose metabolism [6]; 120 min): 132 ± 10.4 mg/dL
Bile flow (bile flow; 1 hour after treatment): 110 ± 1.8
Bile flow (bile flow; 2 hours after treatment): 115 ± 6.8
Bile flow (bile flow; 3 hours after treatment): 105 ± 6.2
Bile flow (bile flow; 4 hours after treatment): 98 ± 8.2
Quantity of total excreted bile relative to control (bile flow; 5 hours after administration): 1.10 times
Bile flow (bile flow; 5 hours after treatment): 80 ± 6.8
Liver damage index ([7]; 6 h before CCl4 (0.05 ml/kg oral), score 0 Normal, 2 slight, 4 clear, 6 heavy damage): 0.5
p-GPT (plasma glutamic-pyruvic transaminase activity) ([7]; 6 h before CCl4, 24 h after CCl4, values over 1,000 regarded as 1,000): 66 Karmen units
